According to patent US20080319000A1, “Use of 3,1IB-Cis-Dihydrotetrabenazine for the Treatment of Symptoms of Huntingtons Disease” (CAMBRIDGE LABORATORIES (IRELAND) LIMITED, priority 2005, published 2008):

How the values were obtained:
VMAT1 = biological target: T1, VMAT1 (Homo sapiens, UniProt P54219); assay: VMAT1 affinity; format: binding
T1 sequence (P54219 1-525): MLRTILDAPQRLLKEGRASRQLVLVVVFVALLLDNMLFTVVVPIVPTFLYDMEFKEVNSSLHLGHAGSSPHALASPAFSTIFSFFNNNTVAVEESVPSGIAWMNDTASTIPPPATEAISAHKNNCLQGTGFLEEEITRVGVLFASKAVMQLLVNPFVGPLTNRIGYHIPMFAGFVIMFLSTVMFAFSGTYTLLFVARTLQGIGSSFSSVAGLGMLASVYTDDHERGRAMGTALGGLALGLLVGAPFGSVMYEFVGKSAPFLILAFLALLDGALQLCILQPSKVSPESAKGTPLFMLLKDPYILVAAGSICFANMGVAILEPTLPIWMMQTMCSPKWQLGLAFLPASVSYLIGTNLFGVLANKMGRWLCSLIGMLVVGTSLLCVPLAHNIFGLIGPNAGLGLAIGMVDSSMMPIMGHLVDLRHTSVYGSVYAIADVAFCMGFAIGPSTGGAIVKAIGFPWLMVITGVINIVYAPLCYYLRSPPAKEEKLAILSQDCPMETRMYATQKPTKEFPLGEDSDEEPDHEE

Male Sprague-Dawley rats = assay: Spontaneous locomotor activity in rats (sedative properties); format: in vivo; conditions: for Inactivity Duration / Large movements Duration / Large movements Occurrence: 20 min period, mean ± SEM n=12
Protocol: A study was carried out in rats to determine whether the dihydrotetrabenazine isomers of the invention have sedative properties. […] Male Sprague-Dawley rats, (Charles River Laboratories, Saint-Germain/L'Arbresle, France), weighing 200-250 g at the beginning of the study, were used for the studies. […] The rats were allowed to acclimatize to their conditions for at least five days before commencement of the study. The rats received food ([…], France, ref. 811002) and water (tap water in water bottle) ad libitum. Solutions of each test compound in corn oil were freshly prepared on the day of the experiment. Haloperidol was prepared in hydroxyethylcellulose, 0.5% in deionized water. Either the vehicle or the test compounds were administered as a single dose (0.3, 1, 3 and 10 mg/kg, 2 mL/kg i.p.). The reference compound haloperidol (1 mg/kg) was administered i.p. […] The animals were placed in plexiglass cages under a video camera in a room with low light intensity (maximum 50 lux). At forty five minutes and 3 hours after administration, locomotor activity was determined during 20 minute periods using a video image analyzer (Videotrack, View Point, France). […] The number and duration of ambulatory movements and duration of inactivity was measured. At the end of the locomotor activity measurement (45 minutes and 3 hours), palpebral closure and arousal were be scored as follows in the plexiglass cage: […] Image tracking was performed using a video camera placed above the plexiglass cage, recording overall locomotor activity. […] The results were expressed as the means ±SEMs of the 12 individual values. Statistical analyses were carried out using ANOVA (one way) and Dunnett's t-test and with the non parametric test of Kruskal-Wallis followed by a Mann & Whitney U-test for the sedation cotation. A p value of p<0.05 was taken as indicating significance. Group size n=12 Group 1: Reference, haloperidol (1 mg/kg i.p.) Group 2: Vehicle control group (2 ml/kg i.p.) Group 3: tetrabenazine (0.3 mg/kg i.p) Group 4: tetrabenazine (1 mg/kg i.p) Group 5: tetrabenazine (3 mg/kg i.p) Group 6: tetrabenazine (10 mg/kg i.p) Group 7: […]

[1] = biological target: T2, monoamine oxidase isoform A (Homo sapiens, UniProt P21397); assay: Monoamine oxidase A inhibition; format: biochemical
T2 sequence (P21397 1-527): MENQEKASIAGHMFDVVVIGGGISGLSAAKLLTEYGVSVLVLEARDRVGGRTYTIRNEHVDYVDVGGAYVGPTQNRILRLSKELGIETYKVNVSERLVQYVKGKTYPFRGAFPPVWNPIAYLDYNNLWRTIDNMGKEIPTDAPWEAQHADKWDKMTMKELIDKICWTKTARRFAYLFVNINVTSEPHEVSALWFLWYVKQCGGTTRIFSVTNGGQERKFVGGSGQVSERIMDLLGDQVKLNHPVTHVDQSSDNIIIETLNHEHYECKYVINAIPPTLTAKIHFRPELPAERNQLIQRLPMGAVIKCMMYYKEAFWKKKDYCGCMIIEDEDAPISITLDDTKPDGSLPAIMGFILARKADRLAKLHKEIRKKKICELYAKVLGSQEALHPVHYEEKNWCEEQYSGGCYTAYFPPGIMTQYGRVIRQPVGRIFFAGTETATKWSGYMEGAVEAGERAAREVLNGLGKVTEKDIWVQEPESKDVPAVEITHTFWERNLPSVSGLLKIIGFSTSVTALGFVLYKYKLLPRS

dopamine receptor = assay: Dopamine receptor binding
[2] = biological target: Dopamine Transporter (DAT) (Homo sapiens, UniProt Q01959); assay: Dopamine Transporter (DAT) binding
[3] = biological target: serotonin transporter protein SERT (Homo sapiens, UniProt P31645); assay: Serotonin transporter SERT inhibition; format: binding
[4] = biological target: 5-hydroxytryptamine isoform 1d (Homo sapiens, UniProt P28221); assay: 5-hydroxytryptamine 1d inhibition; format: binding
[5] = biological target: T3, catechol O-methyl transferase (COMT) (Homo sapiens, UniProt P21964); assay: COMT inhibition; format: biochemical
T3 sequence (P21964 1-271): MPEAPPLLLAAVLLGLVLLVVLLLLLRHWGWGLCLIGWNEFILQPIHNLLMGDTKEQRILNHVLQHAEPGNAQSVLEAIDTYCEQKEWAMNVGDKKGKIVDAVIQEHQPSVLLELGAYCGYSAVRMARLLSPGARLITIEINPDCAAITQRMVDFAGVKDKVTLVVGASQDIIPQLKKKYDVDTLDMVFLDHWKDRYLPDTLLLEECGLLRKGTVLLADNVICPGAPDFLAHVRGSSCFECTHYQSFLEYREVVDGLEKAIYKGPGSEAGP

[6] = biological target: 5-hydroxytryptamine isoform 1b (Homo sapiens, UniProt P28222); assay: 5-hydroxytryptamine 1b inhibition; format: binding
[7] = biological target: T4, monoamine oxidase isoform B (Homo sapiens, UniProt P27338); assay: Monoamine oxidase B inhibition; format: biochemical
T4 sequence (P27338 1-520): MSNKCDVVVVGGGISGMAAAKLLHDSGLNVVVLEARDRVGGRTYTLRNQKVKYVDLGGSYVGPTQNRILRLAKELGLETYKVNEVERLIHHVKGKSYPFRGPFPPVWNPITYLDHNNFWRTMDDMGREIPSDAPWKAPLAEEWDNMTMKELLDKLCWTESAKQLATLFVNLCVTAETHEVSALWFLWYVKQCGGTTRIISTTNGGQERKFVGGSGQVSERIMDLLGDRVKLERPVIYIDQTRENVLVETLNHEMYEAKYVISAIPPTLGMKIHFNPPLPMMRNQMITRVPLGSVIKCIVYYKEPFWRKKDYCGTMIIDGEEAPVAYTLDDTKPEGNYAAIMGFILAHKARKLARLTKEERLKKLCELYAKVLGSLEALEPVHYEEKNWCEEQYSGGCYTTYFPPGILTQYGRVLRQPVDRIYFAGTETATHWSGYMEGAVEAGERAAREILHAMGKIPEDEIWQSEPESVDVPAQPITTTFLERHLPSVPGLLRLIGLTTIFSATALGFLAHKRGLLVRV

adrenergic receptors = assay: Adrenergic receptor inhibition; format: binding
[8] = locomotor studies carried out on rats
[9] = rats, 0.3 mg/kg i.p., 45 minutes after administration
[10] = rats, 0.3 mg/kg i.p., 3 hours after administration
[11] = rats, 1 mg/kg i.p., 45 minutes after administration
[12] = rats, 1 mg/kg i.p., 3 hours after administration
[13] = rats, 3 mg/kg i.p., 45 minutes after administration
[14] = rats, 3 mg/kg i.p., 3 hours after administration
[15] = rats, 10 mg/kg i.p., 45 minutes after administration
[16] = rats, 10 mg/kg i.p., 3 hours after administration
[17] = rats, 0.3, 1, 3 and 10 mg/kg i.p., 45 minutes and 3 hours after administration

Sequence of 5-hydroxytryptamine isoform 1d (P28221 whole entry, canonical isoform): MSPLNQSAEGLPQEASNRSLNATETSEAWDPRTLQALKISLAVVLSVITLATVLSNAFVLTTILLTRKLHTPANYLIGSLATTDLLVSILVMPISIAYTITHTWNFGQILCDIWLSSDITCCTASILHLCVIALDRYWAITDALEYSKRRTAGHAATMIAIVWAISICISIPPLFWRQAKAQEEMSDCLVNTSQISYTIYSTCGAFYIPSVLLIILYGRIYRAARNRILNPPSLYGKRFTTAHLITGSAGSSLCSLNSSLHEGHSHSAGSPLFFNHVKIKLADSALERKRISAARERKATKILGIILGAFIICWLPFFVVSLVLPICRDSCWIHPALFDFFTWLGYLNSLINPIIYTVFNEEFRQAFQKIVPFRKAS
Sequence of Dopamine Transporter (DAT) (Q01959 whole entry, species assumed): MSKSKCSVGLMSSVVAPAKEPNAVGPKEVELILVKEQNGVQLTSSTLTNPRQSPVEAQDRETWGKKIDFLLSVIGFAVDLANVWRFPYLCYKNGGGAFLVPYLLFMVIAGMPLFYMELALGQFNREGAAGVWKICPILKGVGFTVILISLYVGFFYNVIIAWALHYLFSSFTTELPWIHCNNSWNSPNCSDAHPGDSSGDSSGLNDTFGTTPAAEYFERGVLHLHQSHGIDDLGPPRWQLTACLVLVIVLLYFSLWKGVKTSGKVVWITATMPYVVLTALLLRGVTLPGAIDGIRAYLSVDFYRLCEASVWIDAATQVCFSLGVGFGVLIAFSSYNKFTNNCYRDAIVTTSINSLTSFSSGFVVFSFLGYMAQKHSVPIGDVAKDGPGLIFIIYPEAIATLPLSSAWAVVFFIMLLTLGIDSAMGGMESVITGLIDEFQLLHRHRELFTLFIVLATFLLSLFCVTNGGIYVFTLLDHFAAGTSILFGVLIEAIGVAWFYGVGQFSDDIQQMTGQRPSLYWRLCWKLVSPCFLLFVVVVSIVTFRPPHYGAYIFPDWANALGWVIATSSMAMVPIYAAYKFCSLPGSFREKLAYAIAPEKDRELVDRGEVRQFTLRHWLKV
Sequence of serotonin transporter protein SERT (P31645 whole entry, canonical isoform): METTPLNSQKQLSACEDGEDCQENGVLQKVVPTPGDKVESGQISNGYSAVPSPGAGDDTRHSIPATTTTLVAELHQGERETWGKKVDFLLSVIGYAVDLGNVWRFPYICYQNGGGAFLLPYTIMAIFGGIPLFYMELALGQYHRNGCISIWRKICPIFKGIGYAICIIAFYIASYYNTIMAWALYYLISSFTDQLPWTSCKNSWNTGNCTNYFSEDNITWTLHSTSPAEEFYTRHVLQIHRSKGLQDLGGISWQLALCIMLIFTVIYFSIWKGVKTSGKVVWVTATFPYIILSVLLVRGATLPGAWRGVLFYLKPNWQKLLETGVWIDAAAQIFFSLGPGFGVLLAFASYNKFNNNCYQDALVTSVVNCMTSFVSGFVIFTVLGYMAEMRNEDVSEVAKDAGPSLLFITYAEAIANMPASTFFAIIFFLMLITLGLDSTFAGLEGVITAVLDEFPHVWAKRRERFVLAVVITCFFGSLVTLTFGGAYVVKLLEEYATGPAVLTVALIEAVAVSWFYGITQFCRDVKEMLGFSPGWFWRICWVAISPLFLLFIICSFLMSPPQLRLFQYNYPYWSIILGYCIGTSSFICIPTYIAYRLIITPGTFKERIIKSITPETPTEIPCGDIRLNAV
Sequence of 5-hydroxytryptamine isoform 1b (P28222 whole entry, canonical isoform): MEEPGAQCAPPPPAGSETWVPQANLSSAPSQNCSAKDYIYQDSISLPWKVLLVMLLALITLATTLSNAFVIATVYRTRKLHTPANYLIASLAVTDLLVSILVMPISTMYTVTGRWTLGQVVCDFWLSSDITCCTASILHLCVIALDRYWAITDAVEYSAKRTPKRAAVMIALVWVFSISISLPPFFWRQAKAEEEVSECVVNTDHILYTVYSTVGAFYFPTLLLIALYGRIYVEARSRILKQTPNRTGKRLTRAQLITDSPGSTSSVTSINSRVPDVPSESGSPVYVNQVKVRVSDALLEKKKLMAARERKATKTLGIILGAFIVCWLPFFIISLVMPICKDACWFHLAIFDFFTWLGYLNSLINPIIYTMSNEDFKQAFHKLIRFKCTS

Row | SMILES | sedative effect (Male Sprague-Dawley rats; [8]) | Inactivity Duration (Male Sprague-Dawley rats; [9]) | Large movements Duration (Male Sprague-Dawley rats; [9]) | Large movements Occurrence (Male Sprague-Dawley rats; [9]) | Inactivity Duration (Male Sprague-Dawley rats; [10]) | Large movements Duration (Male Sprague-Dawley rats; [10]) | Large movements Occurrence (Male Sprague-Dawley rats; [10]) | Inactivity Duration (Male Sprague-Dawley rats; [11]) | Large movements Duration (Male Sprague-Dawley rats; [11]) | Large movements Occurrence (Male Sprague-Dawley rats; [11]) | Inactivity Duration (Male Sprague-Dawley rats; [12]) | Large movements Duration (Male Sprague-Dawley rats; [12]) | Large movements Occurrence (Male Sprague-Dawley rats; [12]) | Inactivity Duration (Male Sprague-Dawley rats; [13]) | Large movements Duration (Male Sprague-Dawley rats; [13]) | Large movements Occurrence (Male Sprague-Dawley rats; [13]) | Inactivity Duration (Male Sprague-Dawley rats; [14]) | Large movements Duration (Male Sprague-Dawley rats; [14]) | Large movements Occurrence (Male Sprague-Dawley rats; [14]) | Inactivity Duration (Male Sprague-Dawley rats; [15]) | also measured
1 | COc1cc2c(cc1OC)C1CC(=O)C(CC(C)C)CN1CC2 (racemic) [tetrabenazine, 1,3,4,6,7,11b-hexahydro-9,10-dimethoxy-3-(2-methylpropyl)-2H-benzo(a)quinolizin-2-one] | dose related sedative effect | 390.4 ± 37.4 s | 66.8 ± 10.7 s | 253 ± 32 | 545.9 ± 37.1 s | 24.3 ± 4.2 s | 96 ± 14 | 456.5 ± 50.5 s | 46.5 ± 8.6 s | 189 ± 32 | 556.9 ± 31.1 s | 21.5 ± 4.0 s | 90 ± 16 | 697.8 ± 39.7 s | 8.7 ± 5.9 s | 38 ± 25 | 729.9 ± 26.8 s | 1.7 ± 0.9 s | 9 ± 4 | 723.1 ± 46.5 s | affinity for VMAT1 (VMAT1): only a low affinity; Large movements Duration (Male Sprague-Dawley rats; [15]): 0.2 ± 0.2 s; Large movements Occurrence (Male Sprague-Dawley rats; [15]): 1 ± 1; Inactivity Duration (Male Sprague-Dawley rats; [16]): 762.1 ± 40.7 s; Large movements Duration (Male Sprague-Dawley rats; [16]): 0.6 ± 0.3 s; Large movements Occurrence (Male Sprague-Dawley rats; [16]): 3 ± 1; sedative effect (Male Sprague-Dawley rats; [17]): dose-dependent sedative effect
2 | COc1cc2c(cc1OC)C1CC(O)C(CC(C)C)CN1CC2 (single isomer, unassigned; isomer c) [Isomer C] | no sedative effects were observed | 323.7 ± 25.6 s | 79.2 ± 10.0 s | 285 ± 34 | 519.3 ± 33.7 s | 31.4 ± 6.0 s | 113 ± 19 | 324.6 ± 38.1 s | 71.8 ± 8.3 s | 295 ± 30 | 510.2 ± 44.9 s | 30.3 ± 6.5 s | 128 ± 24 | 322.7 ± 27.8 s | 84.0 ± 9.4 s | 308 ± 36 | 493.6 ± 38.5 s | 30.2 ± 5.5 s | 125 ± 22 | 368.7 ± 30.9 s | inhibitory activity against monoamine oxidase isoform A [1]: no inhibitory activity; Large movements Duration (Male Sprague-Dawley rats; [15]): 66.5 ± 9.9 s; Large movements Occurrence (Male Sprague-Dawley rats; [15]): 254 ± 32; Inactivity Duration (Male Sprague-Dawley rats; [16]): 465.7 ± 49.0 s; Large movements Duration (Male Sprague-Dawley rats; [16]): 42.7 ± 8.0 s; Large movements Occurrence (Male Sprague-Dawley rats; [16]): 164 ± 30; sedative effect (Male Sprague-Dawley rats; [17]): no sedative effects at any time; hyperlocomotor effect (Male Sprague-Dawley rats; rats, 3 hours after administration): slight and non-significant hyperlocomotor effect; dopamine receptor binding activity (dopamine receptor): only weak or non-existent; Dopamine Transporter (DAT) binding activity [2]: lack Dopamine Transporter (DAT) binding activity; inhibition of the serotonin transporter protein SERT [3]: potent inhibitors; inhibitory activity against 5-hydroxytryptamine isoform 1d [4]: no inhibitory activity; inhibitory activity against catechol O-methyl transferase (COMT) [5]: no inhibitory activity; inhibitory activity against 5-hydroxytryptamine isoform 1b [6]: no inhibitory activity; inhibitory activity against monoamine oxidase isoform B [7]: no inhibitory activity; inhibition of the adrenergic receptors (adrenergic receptors): either weakly active or inactive
3 | O=C(CCCN1CCC(O)(c2ccc(Cl)cc2)CC1)c1ccc(F)cc1 [haloperidol, reference compound] |  |  |  |  |  |  |  | 637.2 ± 60.1 s | 14.8 ± 8.5 s | 58 ± 33 | 723.6 ± 50.2 s | 2.2 ± 2.0 s | 9 ± 8 |  |  |  |  |  |  |  | 
